Legend:
Type in all cases: cell-based
[1] = target: T1, PAR2 (HT-29 cells) (Homo sapiens, UniProt P55085); test: Ca FLIPR TETRA assay, ANTAGONIST mode, activator 8 μM SLIGKV; details: HT-29 cells, activator 8 μM SLIGKV; maximal antagonist concentration per Method (A: 0.1, 1 or 2 μM; B: 50 μM)
T1 construct: host or cells: HT-29
T1 sequence (P55085 26-397): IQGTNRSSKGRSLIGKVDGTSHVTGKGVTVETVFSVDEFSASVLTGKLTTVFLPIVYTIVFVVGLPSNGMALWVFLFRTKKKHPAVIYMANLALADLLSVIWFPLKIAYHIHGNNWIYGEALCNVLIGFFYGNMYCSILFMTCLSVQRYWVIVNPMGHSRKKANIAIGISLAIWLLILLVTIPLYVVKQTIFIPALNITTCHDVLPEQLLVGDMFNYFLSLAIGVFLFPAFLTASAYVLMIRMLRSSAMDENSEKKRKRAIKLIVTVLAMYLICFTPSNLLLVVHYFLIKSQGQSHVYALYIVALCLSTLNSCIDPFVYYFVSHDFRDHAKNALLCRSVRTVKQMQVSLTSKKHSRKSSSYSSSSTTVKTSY
Outline: (§1)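 Ca2+ flux by FLIPR Tetra in HT-29 cells after 30 min r.t. compound preincubation, followed by stimulation with SLIGKV 8 μM, thrombin 1 U/mL, trypsin 3.1 U/mL or UTP 0.6 μM (final). Cells were dye-loaded with calcium 5 beforehand; compound-only responses were also read.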

[2] = target: T1, PAR2 (HT-29 cells); test: Ca FLIPR TETRA assay, ANTAGONIST mode, activator 3.1 U/mL trypsin; details: HT-29 cells, activator 3.1 U/mL trypsin; maximal antagonist concentration per Method (A: 0.1, 1 or 2 μM; B: 50 μM)
Outline: as §1

[3] = test system: Thrombin-stimulated Ca2+ response in HT-29 cells; test: Ca FLIPR TETRA assay, ANTAGONIST mode, activator 1 U/mL Thrombin; details: Homo sapiens; HT-29 cells, activator 1 U/mL Thrombin
Outline: as §1

[4] = test system: UTP-stimulated Ca2+ response in HT-29 cells; test: Ca FLIPR TETRA assay, ANTAGONIST mode, activator 0.6 μM UTP; details: Homo sapiens; HT-29 cells, activator 0.6 μM UTP
Outline: as §1

IC50 [1] [nM]	IC50 [2] [nM]	IC50 [3] [nM]	IC50 [4] [nM]	SMILES
3.3	4.4	> 2000	> 2000	CC(C)(C)c1cc(-c2ccc(Cl)c(F)c2)nc2cc(C(=O)N3CCN(c4cn[nH]c4)C(=O)C3(C)C)oc12 [Example I-260]
45	31	> 2000	> 2000	CC(C)(C)c1cc(-c2ccc(Cl)c(F)c2)nc2cc(C(=O)N3CCN(c4ccnc(C(=O)O)c4)CC3(C)C)oc12 [Example I-261]
770	1900	> 2000	> 2000	CC(C)(C)c1cc(-c2ccc(Cl)cc2)nc2cc(C(=O)N3CCN(c4ccncc4)CC3(C)C)oc12 [Example I-262]
2.6	3.9	> 2000	> 2000	Cc1ccc(N2CCN(C(=O)c3cc4nc(-c5ccc(Cl)cc5)cc(C(C)(C)C)c4o3)C(C)(C)C2)nn1 [Example I-263]
15	18	> 2000	> 2000	Cc1cnc(N2CCN(C(=O)c3cc4nc(-c5ccc(Cl)cc5)cc(C(C)(C)C)c4o3)C(C)(C)C2)cn1 [Example I-264]
5.8	5.5	> 2000	> 2000	Cc1cncnc1N1CCN(C(=O)c2cc3nc(-c4ccc(Cl)cc4)cc(C(C)(C)C)c3o2)C(C)(C)C1 [Example I-265]
36	33	> 2000	> 2000	Cc1nccnc1N1CCN(C(=O)c2cc3nc(-c4ccc(Cl)cc4)cc(C(C)(C)C)c3o2)C(C)(C)C1 [Example I-266]
33	25	> 2000	> 2000	CC(C)(C)c1cc(-c2ccc(Cl)c(F)c2)nc2cc(C(=O)N3CCN(c4cccnc4)CC3(C)C)oc12 [Example I-267, [7-tert-butyl-5-(4-chloro-3-fluoro-phenyl)furo[3,2-b]pyridin-2-yl]-[2,2-dimethyl-4-(3-pyridyl)piperazin-1-yl]methanone]
4.9	9.4	> 2000	> 2000	COC(=O)c1cccc(N2CCN(C(=O)c3cc4nc(-c5ccc(Cl)c(F)c5)cc(C(C)(C)C)c4o3)C(C)(C)C2)n1 [Example I-268]
57	41	> 2000	> 2000	CC(C)(C)c1cc(-c2ccc(Cl)cc2)nc2cc(C(=O)N3CCN(c4cccnc4)CC3(C)C)oc12 [Example I-269]
21	51	> 2000	> 2000	CC1(C)CCC(c2cc(C(C)(C)C)c3oc(C(=O)N4CCN(c5ccccn5)CC4(C)C)cc3n2)CC1 [Example I-270]
7.4	7.8	> 2000	> 2000	CC(C)(C)c1cc(-c2ccc(Cl)c(F)c2)nc2cc(C(=O)N3CCN(c4ccccn4)CC3(C)C)oc12 [Example I-271]
21	14	> 2000	> 2000	CC(C)(C)c1cc(-c2ccc(Cl)cc2)nc2cc(C(=O)N3CCN(c4ccccn4)CC3(C)C)oc12 [Example I-272]
26	14	> 2000	> 2000	CC(C)(C)c1cc(-c2ccc(Cl)cc2)nc2cc(C(=O)N3CCN(c4cn[nH]c4)CC3(C)C)oc12 [Example I-273]
61	34	> 2000	> 2000	CC(C)(C)c1cc(-c2ccc(Cl)cc2)nc2cc(C(=O)N3CCN(c4ccc(C(=O)O)nc4)CC3(C)C)oc12 [Example I-274]
16	20	> 2000	> 2000	Cc1cc(-c2cc(C(C)(C)C)c3oc(C(=O)N4CCN(c5cn[nH]c5)C(=O)C4(C)C)cc3n2)ccc1Cl [Example I-275, 4-[7-tert-butyl-5-(4-chloro-3-methyl-phenyl)furo[3,2-b]pyridine-2-carbonyl]-3,3-dimethyl-1-(1H-pyrazol-4-yl)piperazin-2-one]

IC50 [1] [nM]	IC50 [2] [nM]	IC50 [3] [nM]	IC50 [4] [nM]	SMILES
1.2	1.8	> 2000	> 2000	Cc1ccnc(N2CCN(C(=O)c3cc4nc(-c5ccc(Cl)c(F)c5)cc(C(C)(C)C)c4o3)C(C)(C)C2=O)n1 [Example I-276]
36	52.5	> 2000	> 2000	CC(C)(C)c1cc(-c2ccc(Cl)c(F)c2)nc2cc(C(=O)N3CCN(c4cc(C(=O)O)n[nH]4)C(=O)C3(C)C)oc12 [Example I-280, 5-[4-[7-tert-butyl-5-(4-chloro-3-fluoro-phenyl)furo[3,2-b]pyridine-2-carbonyl]-3,3-dimethyl-2-oxo-piperazin-1-yl]-1H-pyrazole-3-carboxylic acid]
3.6	7.4	1750	> 2000	CC1(C)CCC(c2cc(C(C)(C)C)c3oc(C(=O)N4CCN(c5ccc(C(=O)O)cn5)C(=O)C4(C)C)cc3n2)CC1 [Example I-281, 6-[4-[7-tert-butyl-5-(4,4-dimethylcyclohexyl)furo[3,2-b]pyridine-2-carbonyl]-3,3-dimethyl-2-oxo-piperazin-1-yl]pyridine-3-carboxylic acid]
7.5	8.3	1600	1800	CC(C)(C)c1cc(-c2ccc(Cl)cc2)nc2cc(C(=O)N3CCN(c4ccc(C(=O)O)cn4)C(=O)C3(C)C)oc12 [Example I-282, 6-[4-[7-tert-butyl-5-(4-chlorophenyl)furo[3,2-b]pyridine-2-carbonyl]-3,3-dimethyl-2-oxo-piperazin-1-yl]pyridine-3-carboxylic acid]
18	61.5	> 2000	> 2000	CC1(C)CCC(c2cc(C(C)(C)C)c3oc(C(=O)N4CCN(c5ccn[nH]5)C(=O)C4(C)C)cc3n2)CC1 [Example I-283, 4-[7-tert-butyl-5-(4,4-dimethylcyclohexyl)furo[3,2-b]pyridine-2-carbonyl]-3,3-dimethyl-1-(1H-pyrazol-5-yl)piperazin-2-one]
13	14.5	> 2000	> 2000	Cc1cc(N2CCN(C(=O)c3cc4nc(-c5ccc(Cl)c(F)c5)cc(C(C)(C)C)c4o3)C(C)(C)C2=O)[nH]n1 [Example I-284, 4-[7-tert-butyl-5-(4-chloro-3-fluoro-phenyl)furo[3,2-b]pyridine-2-carbonyl]-3,3-dimethyl-1-(3-methyl-1H-pyrazol-5-yl)piperazin-2-one]
28	23.5	> 2000	> 2000	Cc1cc(N2CCN(C(=O)c3cc4nc(-c5ccc(Cl)cc5)cc(C(C)(C)C)c4o3)C(C)(C)C2=O)[nH]n1 [Example I-285, 4-[7-tert-butyl-5-(4-chlorophenyl)furo[3,2-b]pyridine-2-carbonyl]-3,3-dimethyl-1-(3-methyl-1H-pyrazol-5-yl)piperazin-2-one]
1.4	2.6	> 2000	> 2000	CC(C)(C)c1cc(-c2ccc(Cl)c(F)c2)nc2cc(C(=O)N3CCN(c4cc(C(=O)O)ccn4)CC3(C)C)oc12 [Example I-286]
0.3	0.5	1800	1620	CC(C)(C)c1cc(-c2ccc(Cl)c(F)c2)nc2cc(C(=O)N3CCN(c4ccc(C(=O)O)cn4)CC3(C)C)oc12 [Example I-287]
0.1	0.3	> 2000	> 2000	CC(C)(C)c1cc(-c2ccc(Cl)c(F)c2)nc2cc(C(=O)N3CCN(c4nc(C(=O)O)co4)CC3(C)C)oc12 [Example I-289]
0.7	1.1	> 2000	> 2000	Cn1cc(C(=O)O)c(C(=O)N2CCN(C(=O)c3cc4nc(C5CC6(CCC6)C5)cc(C(C)(C)C)c4o3)C(C)(C)C2)n1 [Example I-291]
3.5	7.1	> 2000	> 2000	CC(C)(C)c1cc(C2CC3(CCC3)C2)nc2cc(C(=O)N3CCN(C(=O)CCC(=O)O)CC3(C)C)oc12 [Example I-292]
5.4	6.7	> 2000	> 2000	CCS(=O)(=O)NCC(=O)N1CCN(C(=O)c2cc3nc(C4CC5(CCC5)C4)cc(C(C)(C)C)c3o2)C(C)(C)C1 [Example I-293]
1.5	3.6	> 2000	> 2000	Cc1cc(C(=O)N2CCN(C(=O)c3cc4nc(C5CC6(CCC6)C5)cc(C(C)(C)C)c4o3)C(C)(C)C2)[nH]n1 [Example I-294]
7.3	22	> 2000	> 2000	Cc1n[nH]c(C(=O)N2CCN(C(=O)c3cc4nc(C5CC6(CCC6)C5)cc(C(C)(C)C)c4o3)C(C)(C)C2)n1 [Example I-295]

From patent publication US20180057505A1, “BICYCLIC HETEROARYL COMPOUNDS USEFUL AS INHIBITORS OF THE PAR-2 SIGNALING PATHWAY” (VERTEX PHARMACEUTICALS INCORPORATED, priority 2015, published 2018)
